Tests used:
[1] = target: Delta-type opioid receptor (Mus musculus, UniProt P32300); test: Functional bioactivity against delta opioid receptor in mouse vas deferens; format: tissue-based; details: for Kb: read-out: pA2 (converted)
Mu-type opioid receptor [2] = target: Mu-type opioid receptor (Rattus norvegicus, UniProt P33535); test: Displacement of [3H]DAMGO from rat mu opioid receptor in brain P2 synaptosomes; format: subcellular
Mu-type opioid receptor [3] = target: Mu-type opioid receptor (Cavia porcellus, UniProt P97266); test: Functional bioactivity against mu opioid receptor in guinea-pig ileum; format: tissue-based
[4] = target: Delta-type opioid receptor (Rattus norvegicus, UniProt P33533); test: Displacement of [3H]deltorphin II from rat delta opioid receptor in brain P2 synaptosomes; format: subcellular
Delta-type opioid receptor (Rattus norvegicus, UniProt P33533), sequence (P33533 whole entry): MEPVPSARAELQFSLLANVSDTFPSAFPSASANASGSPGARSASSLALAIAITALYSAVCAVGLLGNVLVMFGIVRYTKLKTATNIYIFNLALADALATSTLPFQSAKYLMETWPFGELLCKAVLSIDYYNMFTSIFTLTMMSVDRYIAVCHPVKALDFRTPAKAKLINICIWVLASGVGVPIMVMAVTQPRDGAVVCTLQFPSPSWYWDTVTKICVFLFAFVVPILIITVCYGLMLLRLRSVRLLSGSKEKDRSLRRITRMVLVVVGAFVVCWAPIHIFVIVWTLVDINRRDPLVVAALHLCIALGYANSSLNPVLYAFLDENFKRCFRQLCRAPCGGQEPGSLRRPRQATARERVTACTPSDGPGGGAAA

Mu-type opioid receptor (Cavia porcellus, UniProt P97266), sequence (P97266 whole entry): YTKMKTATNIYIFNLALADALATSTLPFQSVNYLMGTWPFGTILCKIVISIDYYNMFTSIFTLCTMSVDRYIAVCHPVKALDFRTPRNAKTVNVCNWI
Delta-type opioid receptor (Mus musculus, UniProt P32300), sequence (P32300 whole entry): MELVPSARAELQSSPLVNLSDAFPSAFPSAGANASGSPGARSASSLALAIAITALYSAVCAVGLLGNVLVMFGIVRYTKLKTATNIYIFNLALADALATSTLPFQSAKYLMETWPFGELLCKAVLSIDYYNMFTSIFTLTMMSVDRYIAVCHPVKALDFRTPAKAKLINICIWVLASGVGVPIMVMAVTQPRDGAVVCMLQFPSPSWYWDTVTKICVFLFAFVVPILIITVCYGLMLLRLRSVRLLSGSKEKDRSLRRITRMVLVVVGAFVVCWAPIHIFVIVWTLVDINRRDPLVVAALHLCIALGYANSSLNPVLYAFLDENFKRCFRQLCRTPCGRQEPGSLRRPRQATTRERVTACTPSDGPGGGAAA
Mu-type opioid receptor (Rattus norvegicus, UniProt P33535), sequence (P33535 whole entry): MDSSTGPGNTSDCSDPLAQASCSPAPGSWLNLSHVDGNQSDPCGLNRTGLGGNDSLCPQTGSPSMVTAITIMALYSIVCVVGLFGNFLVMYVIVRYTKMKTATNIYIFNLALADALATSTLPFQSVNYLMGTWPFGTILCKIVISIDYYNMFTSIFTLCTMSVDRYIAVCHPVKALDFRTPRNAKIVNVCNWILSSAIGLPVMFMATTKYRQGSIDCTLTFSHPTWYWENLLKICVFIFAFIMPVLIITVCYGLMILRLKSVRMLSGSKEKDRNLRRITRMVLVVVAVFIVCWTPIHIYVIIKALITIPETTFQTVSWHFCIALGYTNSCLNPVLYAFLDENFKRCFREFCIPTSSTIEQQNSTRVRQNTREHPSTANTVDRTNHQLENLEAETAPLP

In the case of `Cc1cc(O)cc(C)c1C[C@H](N)C(=O)N1Cc2ccccc2C[C@H]1C(=O)NCc1nc2ccccc2n1CC1CC1`, the IC50 [1] is reported as “Not Active”, the Kb [1] is reported as 0.339 nM and the Ki (Mu-type opioid receptor [2]) is reported as 0.52 nM. It also gave an IC50 (Mu-type opioid receptor [3]) of 64 nM and a Ki [4] of 0.36 nM.

For `CCOC(=O)Cn1c(CNC(=O)[C@@H]2Cc3ccccc3CN2C(=O)[C@@H](N)Cc2c(C)cc(O)cc2C)nc2ccccc21`, the IC50 [1] was “Not Active”, the Kb [1] was 0.17 nM and the Ki (Mu-type opioid receptor [2]) was 1.42 nM. The IC50 (Mu-type opioid receptor [3]) was 30 nM and the Ki [4] was 0.12 nM.

With `C=CCn1c(CNC(=O)[C@@H]2Cc3ccccc3CN2C(=O)[C@@H](N)Cc2c(C)cc(O)cc2C)nc2ccccc21` the IC50 [1] was “Not Active”, the Kb [1] was 0.457 nM and the Ki (Mu-type opioid receptor [2]) was 0.44 nM. It also gave an IC50 (Mu-type opioid receptor [3]) of 72 nM and a Ki [4] of 0.13 nM.

With `Cc1cc(O)cc(C)c1C[C@H](N)C(=O)N1Cc2ccccc2C[C@H]1C(=O)NCc1nc2ccccc2n1CC(=O)O` the IC50 [1] was “Not Active”, the Kb [1] was 0.269 nM and the Ki (Mu-type opioid receptor [2]) was 6.92 nM. It also gave an IC50 (Mu-type opioid receptor [3]) of 3190 nM and a Ki [4] of 0.021 nM.

With `Cc1cc(O)cc(C)c1C[C@H](N)C(=O)N1Cc2ccccc2C[C@H]1C(=O)NCc1nc2ccccc2n1C` the IC50 [1] was “Not Active”, the Kb [1] was 0.0724 nM and the Ki (Mu-type opioid receptor [2]) was 0.83 nM. For the same molecule, the IC50 (Mu-type opioid receptor [3]) was 450 nM and the Ki [4] was 0.16 nM.

`Cc1cc(O)cc(C)c1C[C@H](N)C(=O)N1Cc2ccccc2C[C@H]1C(=O)NCc1nc2ccccc2n1Cc1ccccc1` was tested, and the IC50 [1] was “Not Active”, the Kb [1] was 3.02 nM and the Ki (Mu-type opioid receptor [2]) was 1.02 nM. The IC50 (Mu-type opioid receptor [3]) was 245 nM and the Ki [4] was 0.2 nM.

`CC(C)[C@H](NC(=O)[C@H](CC(=O)O)NC(=O)[C@H](Cc1ccccc1)NC(=O)[C@@H](C)NC(=O)[C@@H](N)Cc1ccc(O)cc1)C(=O)N[C@H](C(=O)NCC(N)=O)C(C)C` [DELTORPHIN C] showed an IC50 (Mu-type opioid receptor [3]) of 1300 nM.

For `C[C@@H](NC(=O)[C@@H](N)Cc1ccc(O)cc1)C(=O)N[C@@H](Cc1ccccc1)C(=O)NCC(=O)N[C@@H](Cc1ccc(O)cc1)C(=O)N1CCC[C@H]1C(=O)N[C@@H](CO)C(N)=O` [DERMORPHIN], the IC50 (Mu-type opioid receptor [3]) was 1.9 nM.

From ChEMBL document CHEMBL1140429, “Conversion of the potent delta-opioid agonist H-Dmt-Tic-NH-CH(2)-bid into delta-opioid antagonists by N(1)-benzimidazole alkylation(1)” (J Med Chem, 2005)
